Results taken from patent publication US20230322724A1, “HETEROCYCLIC COMPOUNDS AS CBP/EP300 BROMODOMAIN INHIBITORS” (AURIGENE ONCOLOGY LIMITED, priority 2020, published 2023).
Where “and” joins values, the source holds several entries; their conditions need not be identical. Equal entries are not always repeated.

How the values were obtained:
[1] = biological target: T1, recombinant CREBBP bromodomain (Homo sapiens, UniProt Q92793); assay: CBP TR-FRET displacement assay; format: binding; details: for IC50: dose-response, read-out: IC50 (group A, B, C); for inhibition at 10 µM: compound at 10 μM
T1 construct: recombinant CREBBP bromodomain obtained from BPS Bioscience, USA; purchased BPS Bioscience, USA
T1 sequence (Q92793 1085-1192 limits assumed): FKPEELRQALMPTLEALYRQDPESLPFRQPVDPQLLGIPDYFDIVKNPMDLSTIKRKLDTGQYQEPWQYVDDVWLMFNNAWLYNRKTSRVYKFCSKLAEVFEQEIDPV
Outline: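 CREBBP bromodomain (50 nM) preincubated 30 min at room temperature with 500 nM biotinylated ligand in HEPES pH 7.5 buffer with TCEP, then 60 min with compound. Eu-anti-His/APC-streptavidin TR-FRET 665/615 nm ratio read; IC50 from sigmoidal dose-response fit.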

[2] = biological target: T2, recombinant P300 bromodomain (Homo sapiens, UniProt Q09472); assay: P300 TR-FRET displacement assay; format: binding; details: dose-response, read-out: IC50 (group A, B, C)
T2 construct: recombinant P300 bromodomain obtained from BPS Bioscience, USA; purchased BPS Bioscience, USA
T2 sequence (Q09472 1049-1156 limits assumed): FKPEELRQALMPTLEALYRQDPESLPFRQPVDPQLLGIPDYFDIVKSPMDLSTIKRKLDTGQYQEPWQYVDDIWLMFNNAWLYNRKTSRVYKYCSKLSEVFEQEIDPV
Experimental: The potency of compounds to inhibit P300 enzyme was tested in a TR-FRET displacement assay using recombinant P300 bromodomain obtained from BPS Bioscience, USA. The assay buffer was 50 mM HEPES (pH 7.5), 50 mM NaCl, 0.008% Brij 35, 0.01% BSA, 1 mM TCEP. 50 nM of P300 & 500 nM of Biotinylated ligand was incubated at room temperature for 30 minutes, the reaction was initiated by adding the pre-incubated enzyme ligand mixture to the test compounds. After 60 min incubation, the reaction was stopped by the addition of stop mix containing 1 nM of LANCE Europium-anti-6xHis antibody (Perkin Elmer, USA) and 40 nM of Sure Light Allophycocyanin-Streptavidin (Perkin Elmer, USA). Fluorescence emission of the samples at 665 and 615 nm were measured at an excitation of 340 nm and their ratio was plotted against the compound concentrations to generate dose-response curve.
Selected compounds of the present invention were screened in the above-mentioned assay procedures and IC50 values were determined by fitting the dose-response data to sigmoidal curve fitting equation using Graph pad prism software V7.

Row | SMILES | IC50 [1] | IC50 [2] | inhibition at 10 µM [1]
1 | Cc1cc2c(N3CCN(C)c4cc(-c5cnn(C)c5)c(C#N)cc43)cccc2[nH]c1=O [Example 2, 1-methyl-7-(1-methyl-1H-pyrazol-4-yl)-4-(3-methyl-2-oxo-1,2-dihydroquinolin-5-yl)-1,2,3,4-tetrahydroquinoxaline-6-carbonitrile] | < 0.05 µM | < 0.025 µM | 
2 | Cc1cc2c(N3CCN(C)c4cc(-c5cnn(C)c5)c(C#N)cc43)cc(OCC(=O)OC(C)(C)C)cc2n(C)c1=O [Example 3, Tert-butyl 2-((5-(7-cyano-4-methyl-6-(1-methyl-1H-pyrazol-4-yl)-3,4-dihydroquinoxalin-1(2H)-yl)-1,3-dimethyl-2-oxo-1,2-dihydroquinolin-7-yl)oxy)acetate] | > 0.01 µM | > 50 µM | 
3 | COc1ccc(CN2CCN(c3cc(OC)cc4c3cc(C)c(=O)n4C)c3cc(C#N)c(-c4cnn(C)c4)cc32)cc1 [Example 8, 4-(7-methoxy-1,3-dimethyl-2-oxo-1,2-dihydroquinolin-5-yl)-1-(4-methoxybenzyl)-7-(1-methyl-1H-pyrazol-4-yl)-1,2,3,4-tetrahydroquinoxaline-6-carbonitrile] | > 0.01 µM | > 50 µM | 
4 | COc1cc(N2CCN(C)c3cc(-c4ccnn4C)c(C#N)cc32)c2cc(C)c(=O)n(C)c2c1 [Example 9] | < 0.05 µM | < 0.025 µM | 
5 | COc1cc(N2CCN(C)c3cc(-n4cc(C)cn4)c(C#N)cc32)c2cc(C)c(=O)n(C)c2c1 [Example 10] | < 0.05 µM | 0.025 to 0.05 µM | 
6 | CNC(=O)c1ccc(-c2cc3c(cc2C#N)N(c2cc(OC)cc4c2cc(C)c(=O)n4C)CCN3C)cn1 [Example 11] | < 0.05 µM | < 0.025 µM | 
7 | COc1cc(N2CCN(C)c3cc(-c4c(C)nn(C)c4C)c(C#N)cc32)c2cc(C)c(=O)n(C)c2c1 [Example 12] | < 0.05 µM | < 0.025 µM | 
8 | COc1cc(N2CC(C)N(C)c3cc(-c4cnn(C)c4)c(C#N)cc32)c2cc(C)c(=O)n(C)c2c1 (stereo not drawn) [Example 13] | < 0.05 µM | < 0.025 µM | 
9 | COc1cc(N2CCN(C)c3cc(-c4ccn(C)n4)c(C#N)cc32)c2cc(C)c(=O)n(C)c2c1 [Example 14] | < 0.05 µM | < 0.025 µM | 
10 | COc1cc(N2CCN(C)c3cc(-c4cccnc4)c(C#N)cc32)c2cc(C)c(=O)n(C)c2c1 [Example 15] | < 0.05 µM | 0.025 to 0.05 µM | 
11 | COc1cc(N2CCN(C)c3cc(-c4cnc(O)nc4)c(C#N)cc32)c2cc(C)c(=O)n(C)c2c1 [Example 16] | < 0.05 µM | < 0.025 µM | 
12 | COc1cc(N2CCN(C)c3cc(C4=CCN(C)CC4)c(C#N)cc32)c2cc(C)c(=O)n(C)c2c1 [Example 17] | < 0.05 µM | > 50 µM | 
13 | COc1cc(N2CCN(C)c3cc(N4CCOCC4)c(C#N)cc32)c2cc(C)c(=O)n(C)c2c1 [Example 18] | < 0.05 µM | 0.025 to 0.05 µM | 
14 | COc1cc(N2CCN(C)c3cc(N4CCN(C)CC4)c(C#N)cc32)c2cc(C)c(=O)n(C)c2c1 [Example 19] | < 0.05 µM | 0.025 to 0.05 µM | 
15 | COc1cc(N2CCN(C)c3cc(N4CCC(O)C4)c(C#N)cc32)c2cc(C)c(=O)n(C)c2c1 (stereo not drawn) [Example 20] | < 0.05 µM | 0.025 to 0.05 µM | 
16 | COc1cc(N2CCN(C)c3cc(N4CCN(C(C)=O)CC4)c(C#N)cc32)c2cc(C)c(=O)n(C)c2c1 [Example 23] | < 0.05 µM | < 0.025 µM | 
17 | COc1cc(N2CCN(C3CC3)c3cc(N4CCN(C)CC4)c(C#N)cc32)c2cc(C)c(=O)n(C)c2c1 [Example 25] | < 0.05 µM | 0.025 to 0.05 µM | 
18 | Cc1cc2c(N3CCN(C)c4cc(-c5cnn(C)c5)c(C#N)cc43)cc(OCC3CCCN(C)C3)cc2n(C)c1=O (stereo not drawn) [Example 35] | < 0.05 µM | < 0.025 µM | 96%
19 | Cc1cc2c(N3CCN(C)c4cc(-c5cnn(C)c5)c(C#N)cc43)cc(OCCN3CCOCC3)cc2n(C)c1=O [Example 36] | < 0.05 µM | < 0.025 µM | 100%

Row | SMILES | IC50 [1] | IC50 [2] | inhibition at 10 µM [1]
20 | COCCOc1cc(N2CCN(C)c3cc(-c4cnn(C)c4)c(C#N)cc32)c2cc(C)c(=O)n(C)c2c1 [Example 37] | < 0.05 µM | < 0.025 µM | 100%
21 | Cc1ccc2[nH]c(=O)c(C)cc2c1N1CCN(C)c2cc(-c3cnn(C)c3)c(C#N)cc21 [Example 38] | < 0.05 µM | > 50 µM | 98%
22 | Cc1cc2c(N3CCN(C)c4cc(-c5cnn(C)c5)c(C#N)cc43)cc(OCCN(C)C)cc2n(C)c1=O [Example 39] | < 0.05 µM | < 0.025 µM | 
23 | Cc1cc2c(N3CCN(C)c4cc(-c5cnn(C)c5)c(C#N)cc43)cc(OC3COC3)cc2n(C)c1=O [Example 40] | < 0.05 µM | 0.025 to 0.05 µM | 
24 | Cc1cc2c(N3CCN(C)c4cc(-c5cnn(C)c5)c(F)cc43)cc(N3CCOCC3)cc2n(C)c1=O [Example 48] | < 0.05 µM | < 0.025 µM | 
25 | Cc1cc2c(N3CCN(C)c4cc(-c5cnn(C)c5)c(C#N)cc43)nccc2[nH]c1=O [Example 54] | > 0.01 µM | > 50 µM | 91%
26 | Cc1cc2c(N3CCN(C)c4cc(-c5cnn(C)c5)c(C=O)cc43)cccc2[nH]c1=O [Example 57, 1-Methyl-7-(1-methyl-1H-pyrazol-4-yl)-4-(3-methyl-2-oxo-1,2-dihydroquinolin-5-yl)-1,2,3,4-tetrahydroquinoxaline-6-carbaldehyde] | > 0.01 µM | > 50 µM | 
27 | Cc1cc2c(N3CCN(C)c4cc(-c5cnn(C)c5)c(C#N)cc43)cc(OCCO)cc2n(C)c1=O [Example 60, 4-(7-(2-Hydroxyethoxy)-1,3-dimethyl-2-oxo-1,2-dihydroquinolin-5-yl)-1-methyl-7-(1-methyl-1H-pyrazol-4-yl)-1,2,3,4-tetrahydroquinoxaline-6-carbonitrile] | < 0.05 µM | < 0.025 µM | 
28 | COc1cc(N2CCNc3cc(-c4cnn(C)c4)c(C#N)cc32)c2cc(C)c(=O)n(C)c2c1 [Example 62, 4-(7-methoxy-1,3-dimethyl-2-oxo-1,2-dihydroquinolin-5-yl)-7-(1-methyl-1H-pyrazol-4-yl)-1,2,3,4-tetrahydroquinoxaline-6-carbonitrile] | > 0.01 µM | 0.025 to 0.05 µM | 
29 | COC(=O)c1cc2c(cc1C#N)N(c1cc(OC)cc3c1cc(C)c(=O)n3C)CCN2C [Example 67, methyl 7-cyano-1-(7-methoxy-1,3-dimethyl-2-oxo-1,2-dihydroquinolin-5-yl)-4-methyl-1,2,3,4-tetrahydroquinoxaline-6-carboxylate] | < 0.05 µM | 0.025 to 0.05 µM | 
30 | Cc1cc2c(N3CCN(C)c4cc(-c5cnn(C)c5)c(C#N)cc43)cc(OCC(=O)O)cc2n(C)c1=O [Example 71, 2-((5-(7-Cyano-4-methyl-6-(1-methyl-1H-pyrazol-4-yl)-3,4-dihydroquinoxalin-1(2H)-yl)-1,3-dimethyl-2-oxo-1,2-dihydroquinolin-7-yl)oxy)acetic acid] | < 0.05 µM | < 0.025 µM | 
31 | Cc1cc2c(N3CCN(C)c4cc(-c5cnn(C)c5)ccc43)cc(OCC(=O)O)cc2n(C)c1=O [Example 72, 2-((1,3-Dimethyl-5-(4-methyl-6-(1-methyl-1H-pyrazol-4-yl)-3,4-dihydroquinoxalin-1(2H)-yl)-2-oxo-1,2-dihydroquinolin-7-yl)oxy)acetic acid] | < 0.05 µM | < 0.025 µM | 
32 | COc1cc(N2CCN(C)c3ccc(-c4cnn(C)c4)cc32)c2cc(C)c(=O)n(C)c2c1 [Example 80] | > 0.01 µM | > 50 µM | 
33 | COc1cc(N2CCN(C)c3cc(-c4cnn(C)c4)c(S(=O)(=O)NC(C)=O)cc32)c2cc(C)c(=O)n(C)c2c1 [Example 108] | < 0.05 µM | < 0.025 µM | 
34 | Cc1cc2c(N3CCN(C)c4cc(-c5cnn(C)c5)ncc43)cc(N3CCOCC3)cc2n(C)c1=O [Example 134] | < 0.05 µM and 0.051 to 0.1 µM | > 50 µM | 
35 | Cc1cc2c(N3CCN(C)c4cc(-c5cnn(C)c5)ncc43)cc(N3C[C@@H]4C[C@H]3CO4)cc2n(C)c1=O [Example 146, 7-((1S,4S)-2-oxa-5-azabicyclo[2.2.1]heptan-5-yl)-1,3-dimethyl-5-(1-methyl-7-(1-methyl-1H-pyrazol-4-yl)-2,3-dihydropyrido[3,4-b]pyrazin-4(1H)-yl)quinolin-2(1H)-one] | < 0.05 µM | > 50 µM | 
36 | CNC(=O)c1ccc(-c2cc3c(cc2C(F)F)N(c2cccc4c2cc(C)c(=O)n4C)CCC3)cn1 [Example 176] | < 0.05 µM | < 0.025 µM | 
37 | Cc1cc2c(N3CCCc4cc(-c5cnn(C)c5)c(C(F)F)cc43)cc(N3CCOCC3)cc2n(C)c1=O [Example 178] | < 0.05 µM | < 0.025 µM | 
38 | COc1cc(N2CCc3cc(-c4cnn(C)c4)c(C(F)F)cc32)c2cc(C)c(=O)n(C)c2c1 [Example 195, 5-(6-(Difluoromethyl)-5-(1-methyl-1H-pyrazol-4-yl)indolin-1-yl)-7-methoxy-1,3-dimethylquinolin-2(1H)-one] | < 0.05 µM | 0.025 to 0.05 µM | 
